Earlier results in patent publication US20100197018A1, “USE OF SUBSTRATES AS PHARMACOLOGICAL CHAPERONES” (AMICUS THERAPEUTICS, INC., priority 2007, published 2010).
Read-outs that look alike come from different tables or passages of the source. Marks after values point to notes of the source that are not given here.

What was measured:
heparan-N-sulfatase = target: T1, heparan-N-sulfatase (Homo sapiens, UniProt P51688); details: for Relative catalytic efficiency*: GlcNS = 1.00; for pH optimum of the enzyme for the substrate: purified enzyme
T1 sequence (P51688 21-502): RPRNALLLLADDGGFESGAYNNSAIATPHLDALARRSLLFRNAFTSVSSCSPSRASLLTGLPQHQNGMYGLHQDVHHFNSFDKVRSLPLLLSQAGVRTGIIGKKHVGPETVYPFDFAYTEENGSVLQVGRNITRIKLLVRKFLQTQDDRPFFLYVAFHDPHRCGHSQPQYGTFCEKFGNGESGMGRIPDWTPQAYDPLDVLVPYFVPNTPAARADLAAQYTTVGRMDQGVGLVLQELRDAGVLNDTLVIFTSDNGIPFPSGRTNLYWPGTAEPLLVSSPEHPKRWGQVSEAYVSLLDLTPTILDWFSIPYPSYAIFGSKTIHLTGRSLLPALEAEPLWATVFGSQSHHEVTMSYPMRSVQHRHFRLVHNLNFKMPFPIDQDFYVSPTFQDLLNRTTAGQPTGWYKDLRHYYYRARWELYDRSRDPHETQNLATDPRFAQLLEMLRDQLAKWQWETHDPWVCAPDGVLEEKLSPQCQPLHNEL

iduronate-2-sulfatase = target: T2, iduronate-2-sulfatase (Homo sapiens, UniProt P22304); details: for pH optimum: Table 4, cells marked * (not optimum pH) left out; for activity as % of maximal activity: at pH 6.3; for Relative catalytic efficiency: IdoA2S-anM = 1.0; for pH of maximal activity: text b65, highly sulfated tetrasaccharide substrates
T2 sequence (P22304 34-550): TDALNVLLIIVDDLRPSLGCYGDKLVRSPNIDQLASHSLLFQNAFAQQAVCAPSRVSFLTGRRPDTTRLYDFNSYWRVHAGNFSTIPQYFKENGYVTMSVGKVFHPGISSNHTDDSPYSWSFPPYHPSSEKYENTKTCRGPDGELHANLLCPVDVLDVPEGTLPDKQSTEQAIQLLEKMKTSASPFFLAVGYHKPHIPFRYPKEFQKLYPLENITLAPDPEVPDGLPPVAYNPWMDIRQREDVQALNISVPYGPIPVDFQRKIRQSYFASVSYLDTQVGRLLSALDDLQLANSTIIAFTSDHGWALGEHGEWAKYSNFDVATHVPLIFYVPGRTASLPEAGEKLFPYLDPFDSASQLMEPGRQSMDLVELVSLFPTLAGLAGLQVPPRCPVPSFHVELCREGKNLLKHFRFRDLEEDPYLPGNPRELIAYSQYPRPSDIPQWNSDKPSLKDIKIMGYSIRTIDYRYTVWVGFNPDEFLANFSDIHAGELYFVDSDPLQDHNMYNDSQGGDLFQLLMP

[1] = target: T3, N-acetyl-glucosamine-6-sulfate sulfatase (6S) Form A (Homo sapiens, UniProt P15586); details: for kcat. (turnover number) / Relative catalytic efficiency* / Km: Form A; for Relative catalytic efficiency*: kcat./Km calculated relative to a value for GlcNAc6S = 1; for Km: read-out: Km; for pH optimum: Table 6
T3 sequence (P15586 37-552): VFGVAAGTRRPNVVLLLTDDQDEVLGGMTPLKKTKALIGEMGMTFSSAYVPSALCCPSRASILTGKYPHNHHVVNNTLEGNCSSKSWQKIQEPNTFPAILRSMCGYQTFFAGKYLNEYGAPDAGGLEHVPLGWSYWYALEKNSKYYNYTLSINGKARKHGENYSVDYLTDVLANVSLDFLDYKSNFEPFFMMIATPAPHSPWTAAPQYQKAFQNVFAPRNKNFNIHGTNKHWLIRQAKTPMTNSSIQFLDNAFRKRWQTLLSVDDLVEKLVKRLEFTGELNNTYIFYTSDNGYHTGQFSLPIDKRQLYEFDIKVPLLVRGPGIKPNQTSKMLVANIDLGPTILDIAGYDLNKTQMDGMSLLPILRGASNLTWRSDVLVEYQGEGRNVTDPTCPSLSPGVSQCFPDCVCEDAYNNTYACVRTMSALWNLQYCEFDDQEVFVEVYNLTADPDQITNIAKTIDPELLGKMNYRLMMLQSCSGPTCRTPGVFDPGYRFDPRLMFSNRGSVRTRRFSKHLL

[2] = 37°, pH: GlcNS-Ido 6.7, GlcNS-Ido2S 5.5, GlcNS-IdOA 5.6, GlcNS-IdoA-GlcNS-IdOA 5.6, GlcNS-IdoA2S-anM6S 3.6, GlcNS6S-Ido 4.2, GlcNS6S-Ido2S 3.8, GlcNS6S-IdOA 4.2
[3] = at the optimum pH of the substrate analog
[4] = not optimum pH (*): IdoA2S-anM6S at pH 5.0, IdoA2S-anT4S at pH 4.0
[5] = rows whose other values are marked †
[6] = values marked † (60° C. per footnote), pH: GlcNS 5.6, GalNS 5.6, GlcNS-IdOA 5.4

O=C(O)[C@H](O)[C@@H](O[C@H]1O[C@H](CO)[C@@H](O[C@@H]2O[C@@H](C(=O)O)[C@@H](O[C@H]3O[C@H](CO)[C@@H](O)[C@H](O)[C@H]3NS(=O)(=O)O)[C@H](O)[C@H]2O)[C@H](O)[C@H]1NS(=O)(=O)O)[C@H](O)[C@@H](O)CO [GlcNS-IdoA-GlcNS-IdOA, O-(α-2-sulphaminoglucosamine)-(1-4)-L-O-(α-iduronic acid)-(1-4)-O-D-(α-2-sulphaminoglucosamine)-(1-3)-L-idonic acid]
Relative catalytic efficiency* (heparan-N-sulfatase; 37°, pH (optimum)): 6927
Km (heparan-N-sulfatase; [2]): 10.3 µM
kcat. (turnover number) (heparan-N-sulfatase; [2]): 52 mol/min per mol of enzyme
pH optimum of the enzyme for the substrate (heparan-N-sulfatase): 5.5

O=P(O)(O)O [sodium phosphate]
effect of salt on activity of the enzyme against the substrates (iduronate-2-sulfatase): inhibitory

CC(=O)N[C@H]1[C@@H](O[C@H]2[C@H](O)[C@@H](OS(=O)(=O)O)[C@H](O[C@H]3[C@H](O)[C@@H](CO)O[C@@H]3COS(=O)(=O)O)O[C@H]2C(=O)O)O[C@H](COS(=O)(=O)O)[C@@H](O)[C@@H]1O [GlcNAc6S-IdoA2S-anM6S, O-(α-N-acetylglucosamine 6-sulphate)-(1-4)-L-O-(α-iduronic acid 2-sulphate)-(1-4)-D-O-2,5-anhydro-mannitol 6 sulphate]
kcat. (turnover number) [1]: 7.08 mol/min per mol of enzyme
Relative catalytic efficiency* [1]: 402
Km [1]: 0.76 µM
pH optimum [1]: 4.3

O-(α-L-iduronic acid 2-sulphate)-(1-4)-D-β-(α-2-sulphaminoglucosamine 6 sulphate)-(1-4)-L-O-(α-iduronic acid 2-sulphate)-(1-4)-D-O-2,5-anhydro[1-^3H]mannitol 6-sulphate [IdoA2S-GlcNS6S-IdoA2S-anM6S]
pH range of activity (iduronate-2-sulfatase): 5.0-6.5
pH optimum (iduronate-2-sulfatase): 5.7
activity as % of maximal activity (iduronate-2-sulfatase): ~90%
Km (iduronate-2-sulfatase; [3]): 1.4 µM
kcat. (turnover no.) (iduronate-2-sulfatase; [3]): 2177 mol/min per mol of enzyme
Relative catalytic efficiency (iduronate-2-sulfatase; [3]): 186.7
pH of maximal activity (iduronate-2-sulfatase): 5.7

O=C(O)[C@@H]1O[C@@H](O[C@H]2[C@H](O)[C@@H](CO)O[C@@H]2COS(=O)(=O)O)[C@H](OS(=O)(=O)O)[C@@H](O)[C@@H]1O [IdoA2S-anM6S, L-O-(α-iduronic acid 2-sulphate)-(1-4)-D-β-2,5-anhydro-mannitol 6-sulphate]
pH optimum (iduronate-2-sulfatase): 4.0
Km (iduronate-2-sulfatase; [3]): 4 µM
kcat. (turnover no.) (iduronate-2-sulfatase; [3]): 2114 mol/min per mol of enzyme
Relative catalytic efficiency (iduronate-2-sulfatase; [3]): 63.0
increase in binding affinity (Km) (iduronate-2-sulfatase; compared with IdoA2S-anM): 5 fold
increase in turnover (Kcat) (iduronate-2-sulfatase; compared with IdoA2S-anM): 13 fold
increase in catalytic activity (iduronate-2-sulfatase; compared with IdoA2S-anM (addition of a 6-sulfate ester group)): 63 fold
Km (iduronate-2-sulfatase; [4]): 2.5 µM
kcat. (turnover no.) (iduronate-2-sulfatase; [4]): 905 mol/min per mol of enzyme
Relative catalytic efficiency (iduronate-2-sulfatase; [4]): 43.1

2-sulphoamino-glucosamine [GlcNS]
kcat. (turnover number), value in parentheses (heparan-N-sulfatase; in parentheses under the † value, parentheses not explained, pH 5.6): (0.0005) mol/min per mol of enzyme
pH optimum of the enzyme for the substrate (heparan-N-sulfatase): 5.6
Relative catalytic efficiency* (heparan-N-sulfatase; [5]): 1.00
Km (heparan-N-sulfatase; [6]): 0.7 µM
kcat. (turnover number) (heparan-N-sulfatase; [6]): 0.0021† mol/min per mol of enzyme

O=C(O)[C@@H]1O[C@@H](O[C@H]2[C@H](O)[C@@H](CO)O[C@@H]2CO)[C@H](OS(=O)(=O)O)[C@@H](O)[C@@H]1O [IdoA2S-anM, L-O-(α-iduronic acid 2-sulphate-(1-4)-D-β-2,5-anhydro-mannitol]
pH optimum (iduronate-2-sulfatase): 5.4
Km (iduronate-2-sulfatase; [3]): 19.2 µM
kcat. (turnover no.) (iduronate-2-sulfatase; [3]): 161 mol/min per mol of enzyme
Relative catalytic efficiency (iduronate-2-sulfatase; [3]): 1.0

O=C[C@H](O)[C@@H](O)[C@H](O[C@H]1O[C@H](CO)[C@@H](O)[C@H](O)[C@H]1NS(=O)(=O)O)[C@@H](O)C(=O)O [GlcNS-IdOA, O-(α-2-sulphaminoglucosamine)-(1-4)-O-L-iduronic acid]
Relative catalytic efficiency* (heparan-N-sulfatase; 37°, pH (optimum)): 359
Km (heparan-N-sulfatase; [2]): 35 µM
kcat. (turnover number) (heparan-N-sulfatase; [2]): 9.19 mol/min per mol of enzyme
pH optimum of the enzyme for the substrate (heparan-N-sulfatase): 5.5
Relative catalytic efficiency* (heparan-N-sulfatase; [5]): 1477
Km (heparan-N-sulfatase; [6]): 40.8 µM
kcat. (turnover number) (heparan-N-sulfatase; [6]): 44† mol/min per mol of enzyme

O-(α-L-idopyranosyluronic acid 2-sulfate)-(1-3)-2,5-anhydro-D-talitol 4-sulfate [IdoA2S-anT4S]
pH optimum (iduronate-2-sulfatase): 5.0
Km (iduronate-2-sulfatase; [3]): 0.7 µM
kcat. (turnover no.) (iduronate-2-sulfatase; [3]): 507 mol/min per mol of enzyme
Relative catalytic efficiency (iduronate-2-sulfatase; [3]): 86.2
Km (iduronate-2-sulfatase; [4]): 1.1 µM
kcat. (turnover no.) (iduronate-2-sulfatase; [4]): 270 mol/min per mol of enzyme
Relative catalytic efficiency (iduronate-2-sulfatase; [4]): 29.3

manganese chloride
effect of salt on activity of the enzyme against the substrates (iduronate-2-sulfatase): no effect or increase the activity

[Cl-].[Cl-].[Mg+2] [magnesium chloride]
effect of salt on activity of the enzyme against the substrates (iduronate-2-sulfatase): no effect or increase the activity

L-O-(α-iduronic acid 2 sulphate)-(1-4)-D-β-(α-2-sulphaminoglucosamine)-(1-4)-O-(β-D-glucuronic or α-L-iduronic acid)-(1-4) D-O(α-N-acetylglucosamine-(1-3)-D-O-]-gulonic acid [IdoA2S-GlcNS-UA-GlcNAc-GlcOA]
pH optimum (iduronate-2-sulfatase): 5.4
Km (iduronate-2-sulfatase; [3]): 1.9 µM
kcat. (turnover no.) (iduronate-2-sulfatase; [3]): 756 mol/min per mol of enzyme
Relative catalytic efficiency (iduronate-2-sulfatase; [3]): 47.5

[Cl-].[Na+] [sodium chloride]
effect of salt on activity of the enzyme against the substrates (iduronate-2-sulfatase): inhibitory

L-O-(α-iduronic acid 2 sulphate)-D-β-α-glucosamine 6-sulphate)-(1-4)-L-O-(α-iduronic acid 2-sulphate)-(1-4)-D-O-anhydro-mannitol 6-sulphate [IdoA2S-GlcNH6S-IdoA2S-anM6S]
pH range of activity (iduronate-2-sulfatase): 4.2-6.0
pH optimum (iduronate-2-sulfatase): 5.4
activity as % of maximal activity (iduronate-2-sulfatase): ~12%
Km (iduronate-2-sulfatase; [3]): 2.5 µM
kcat. (turnover no.) (iduronate-2-sulfatase; [3]): 1925 mol/min per mol of enzyme
Relative catalytic efficiency (iduronate-2-sulfatase; [3]): 91.7
pH of maximal activity (iduronate-2-sulfatase): 5.1

N[C@H]1[C@@H](O[C@H]2[C@H](O)[C@@H](OS(=O)(=O)O)[C@H](O[C@H]3[C@H](O)[C@@H](CO)O[C@@H]3COS(=O)(=O)O)O[C@H]2C(=O)O)O[C@H](COS(=O)(=O)O)[C@@H](O)[C@@H]1O [GlcNH6S-IdoA2S-anM6S, O-α-glucosamine 6-sulphate)-(1-4)-L-O-(α-iduronic acid 2-sulphate)-(1-4)-D-β-2,5-anhydro-mannitol 6-sulphate]
kcat. (turnover number) [1]: 0.11 mol/min per mol of enzyme
Relative catalytic efficiency* [1]: 14
Km [1]: 0.35 µM
pH optimum [1]: 4.3

O=S(=O)([O-])[O-].[Na+].[Na+] [sodium sulfate]
effect of salt on activity of the enzyme against the substrates (iduronate-2-sulfatase): inhibitory
